Measured values from US5747535A, “Selective thrombin inhibitors” (priority 1995, dated 1998).
Like-named read-outs stand apart in the source and are kept apart here.

How the values were obtained:
trypsin = target: T1, trypsin (Bos taurus, UniProt P00760); test: biochemical; type: biochemical; details: 20 μM substrate; read-out: Inhibitory activity for trypsin, Ki
T1 sequence (P00760 24-246): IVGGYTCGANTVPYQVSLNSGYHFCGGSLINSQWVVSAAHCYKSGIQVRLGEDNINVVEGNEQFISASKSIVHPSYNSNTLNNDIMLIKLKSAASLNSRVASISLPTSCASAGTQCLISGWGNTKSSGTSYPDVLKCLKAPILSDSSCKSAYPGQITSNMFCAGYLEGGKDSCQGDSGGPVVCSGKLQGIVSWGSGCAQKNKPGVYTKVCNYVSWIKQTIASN
Description: To identify the selectivity for thrombin over trypsin of the compound of the present invention, the inhibitory activity for trypsin of the compound of formula (I) is measured as Ki value according to the same method as the above method for determination of thrombin inhibitory activity, and then the ratio of the activity for trypsin to the activity for thrombin is calculated. In this case, the procedure for determination of inhibitory activity for trypsin is substantially identical to that for thrombin, except that N-benzoyl-Val-Gly-Arg para-nitroanilide hydrochloride is used as the substrate.
As the substrate 20μM solution of N-benzoyl-Val-Gly-Arg-p-nitroanilide hydrochloride was used, and the inhibitor was used in various concnetrations within the range of […]. In addition, trypsin was dissolved in 0.1N HCl, adjusted to the concentration of 45 μg/ml with the said tris buffered solution just before the experiment, and then used in an amount of 40μl. As in the experiment for thrombin, a total volume of the reaction solution was 1.5 ml and the remaining procedure was conducted in the same manner.

[1] = Test 2: Pharmacokinetic test in rats; type: in vivo, rat; details: for concentration at 0.05 h: 3 min; for concentration at 0.5 h: 30 min; for concentration at 0.75 h: 45 min; for concentration at 1 h: 60 min; for concentration at 1.5 h: 90 min; for concentration at 2 h: 120 min; for concentration at 3 h: 180 min; for bioavailability: oral route
Description: Male rats and dogs were fasted for 24 hours and used as the experimental animals. […] Bloods were collected from the animals at given time intervals and then immediately mixed with methanol and zinc sulfate. Finally, the upper layer of the mixture was quantitatively analyzed at ultraviolet wavelength of 231 nm to measure the drug concentration in blood by HPLC.

[2] = rat, blood, iv, 10 mg/kg, Rat-1, i.v. 10 mg/kg, read-out: Blood concentration
[3] = rat, blood, iv, 10 mg/kg, Rat-2, i.v. 10 mg/kg, read-out: Blood concentration
[4] = rat, blood, iv, 10 mg/kg, Rat-3, i.v. 10 mg/kg, read-out: Blood concentration
[5] = rat, blood, iv, 10 mg/kg, rats, i.v. 10 mg/kg, read-out: Blood concentration, Average(+error)
[6] = rat, blood, po, 15 mg/kg, Rat-1, oral 15 mg/kg, read-out: Blood concentration
[7] = rat, blood, po, 15 mg/kg, Rat-2, oral 15 mg/kg, read-out: Blood concentration
[8] = rat, blood, po, 15 mg/kg, Rat-3, oral 15 mg/kg, read-out: Blood concentration
[9] = rat, blood, po, 15 mg/kg, rats, oral 15 mg/kg, read-out: Blood concentration, Average(+error)

Ki (trypsin): 3.19 µM | concentration at 1 min [1, 2]: 31500 ng/mL | concentration at 0.05 h [1, 2]: 8100 ng/mL | concentration at 5 min [1, 2]: 3980 ng/mL | concentration at 10 min [1, 2]: 1910 ng/mL | concentration at 20 min [1, 2]: 918 ng/mL | concentration at 0.5 h [1, 2]: 631 ng/mL | concentration at 0.75 h [1, 2]: 355 ng/mL | concentration at 1 h [1, 2]: 270 ng/mL | concentration at 1.5 h [1, 2]: 168 ng/mL | concentration at 2 h [1, 2]: 76 ng/mL | concentration at 3 h [1, 2]: 87 ng/mL | concentration at 1 min [1, 3]: 23000 ng/mL | concentration at 0.05 h [1, 3]: 6770 ng/mL | concentration at 5 min [1, 3]: 3070 ng/mL | concentration at 10 min [1, 3]: 1830 ng/mL | concentration at 20 min [1, 3]: 898 ng/mL | concentration at 0.5 h [1, 3]: 600 ng/mL | concentration at 0.75 h [1, 3]: 408 ng/mL | concentration at 1 h [1, 3]: 242 ng/mL | concentration at 1.5 h [1, 3]: 166 ng/mL | concentration at 2 h [1, 3]: 97 ng/mL | concentration at 3 h [1, 3]: 73 ng/mL | concentration at 1 min [1, 4]: 32000 ng/mL | concentration at 0.05 h [1, 4]: 7880 ng/mL | concentration at 5 min [1, 4]: 4220 ng/mL | concentration at 10 min [1, 4]: 1930 ng/mL | concentration at 20 min [1, 4]: 883 ng/mL | concentration at 0.5 h [1, 4]: 591 ng/mL | concentration at 0.75 h [1, 4]: 398 ng/mL | concentration at 1 h [1, 4]: 289 ng/mL | concentration at 1.5 h [1, 4]: 184 ng/mL | concentration at 2 h [1, 4]: 119 ng/mL | concentration at 3 h [1, 4]: 78 ng/mL | concentration at 1 min [1, 5]: 28800 ng/mL | concentration at 0.05 h [1, 5]: 7590 ng/mL | concentration at 5 min [1, 5]: 3760 ng/mL | concentration at 10 min [1, 5]: 1890 ng/mL | concentration at 20 min [1, 5]: 900 ng/mL | concentration at 0.5 h [1, 5]: 607 ng/mL | concentration at 0.75 h [1, 5]: 387 ng/mL | concentration at 1 h [1, 5]: 267 ng/mL | concentration at 1.5 h [1, 5]: 173 ng/mL | concentration at 2 h [1, 5]: 97 ng/mL | concentration at 3 h [1, 5]: 79 ng/mL | concentration at 5 min [1, 6]: 1610 ng/mL | concentration at 10 min [1, 6]: 1480 ng/mL | concentration at 20 min [1, 6]: 569 ng/mL | concentration at 0.5 h [1, 6]: 232 ng/mL | concentration at 0.75 h [1, 6]: 145 ng/mL | concentration at 1 h [1, 6]: 143 ng/mL | concentration at 1.5 h [1, 6]: 66 ng/mL | concentration at 2 h [1, 6]: 34 ng/mL | concentration at 3 h [1, 6]: 24 ng/mL | concentration at 5 min [1, 7]: 822 ng/mL | concentration at 10 min [1, 7]: 686 ng/mL | concentration at 20 min [1, 7]: 166 ng/mL | concentration at 0.5 h [1, 7]: 82 ng/mL | concentration at 0.75 h [1, 7]: 107 ng/mL | concentration at 1 h [1, 7]: 123 ng/mL | concentration at 1.5 h [1, 7]: 186 ng/mL | concentration at 3 h [1, 7]: 238 ng/mL | concentration at 5 min [1, 8]: 570 ng/mL | concentration at 10 min [1, 8]: 384 ng/mL | concentration at 20 min [1, 8]: 97 ng/mL | concentration at 0.5 h [1, 8]: 113 ng/mL | concentration at 0.75 h [1, 8]: 112 ng/mL | concentration at 1 h [1, 8]: 110 ng/mL | concentration at 1.5 h [1, 8]: 119 ng/mL | concentration at 2 h [1, 8]: 71 ng/mL | concentration at 3 h [1, 8]: 64 ng/mL | concentration at 5 min [1, 9]: 1000 ng/mL | concentration at 10 min [1, 9]: 850 ng/mL | concentration at 20 min [1, 9]: 255 ng/mL | concentration at 0.5 h [1, 9]: 143 ng/mL | concentration at 0.75 h [1, 9]: 121 ng/mL | concentration at 1 h [1, 9]: 125 ng/mL | concentration at 1.5 h [1, 9]: 124 ng/mL | concentration at 2 h [1, 9]: 53 ng/mL | concentration at 3 h [1, 9]: 109 ng/mL | bioavailability ([1]; rat, blood, rats, read-out: Bioavailability): 15% | half-life ([1]; rat, blood, rats, read-out: Elimination Half-life, Average + (error)): 47 min | bioavailability ([1]; rats): 15 (2) %
SMILES: CN(C(=O)[C@H](Cc1ccc(C(=N)NN)cc1)NS(=O)(=O)c1ccc2ccccc2c1)C1CCCC1 [Example 1, (S)-N-cyclopentyl-N-methyl-3-(4-amidrazonophenyl)-2-(2-naphthylsulfonylamino)propionamide]
distribution and disappearance after intravenous injection ([1]; rats, intravenous): rapidly distributed and then slowly disappeared
